Reference: patent US8815852B2, “Carbamoyloxy arylalkan arylpiperazine analgesics” (SK Biopharmaceuticals Co., Ltd., priority 2007, dated 2014)
pIC50: −log10 of the molar value. Like-named read-outs stand apart in the source and are kept apart here. Blank lines part the entries; values can stand above or below the compound they belong to.

Key:
5-HT2A receptor = 5-HT2A receptor (Rattus norvegicus (Rat), UniProt P14842); test: Binding to 5-HT2A receptor ([3H]-Ketanserin, rat cortical membranes); set-up: species or system Sprague-Dawley (SD) rats; details: for pIC50: 0.5 nM [3H]-Ketanserin, read-out: 5-HT2A: IC50 (Concentration required to be 50% suppressed)
Procedure: Binding to 5-HT2A Receptor
6-week-old Sprague-Dawley (SD) rats were anesthetized in an ether container for 5 minutes, brains were separated from rats, and cortical regions were then separated from the brains of the rats. The cortical regions of the rats were put into a Tris-HCl buffer solution (50 mM, pH 7.7) and homogenized, and the homogenate was centrifuged twice at 4° C. at a rotary speed of 50,000 g to obtain a precipitate (membrane protein). The precipitate was put into a buffer solution, and homogenized, which was used later as a protein source. 0.5 nM [3H]-Ketanserin was used as a radioactive isotope, and 10 uM serotonin was used to remove non-specific bindings. 25 ul of the compound, 100 ul of an aqueous radioactive isotope solution, and 100 ul of the protein source were put together, and kept at 25° C. for 1 hour. The resulting mixture was filtered with a membrane filter in a 96-well harvester when the 96-well plate reaction was completed. The competitivity of the compound to [3H]-Ketanserin was determined by taking the membrane filter and measuring the radioactivity in a scintillation counter, and an IC50 value was determined by measuring the increasing concentration of the compound. The specific reaction of the compound accounted for 90% or more. The general experiments were carried out according to the method by Leysen et al. (1982, Eur. J. Pharmacol).

5-HT1A receptor = 5-HT1A receptor (Rattus norvegicus (Rat), UniProt P19327); test: Binding to 5-HT1A receptor ([3H]-8-OH-DPAT, rat cortical membranes); set-up: species or system Sprague-Dawley (SD) rats; details: for pIC50: 2 nM [3H]-8-OH-DPAT, read-out: 5-HT1A: IC50 (Concentration required to be 50% suppressed)
Procedure: Binding to 5-HT1A Receptor
6-week-old Sprague-Dawley (SD) rats were anesthetized in an ether container for 5 minutes, brains were separated from rats, and cortical regions were then separated from the brains of the rats. The cortical regions of the rats were put into a Tris-HCl buffer solution (50 mM, pH 7.4) and homogenized, and the homogenate was centrifuged twice at 4? at a rotary speed of 50,000 g to obtain a precipitate (membrane protein). The precipitate was put into a buffer solution, and homogenized, which was used later as a protein source. 2 nM [3H]-8-OH-DPAT was used as a radioactive isotope, and 10 uM serotonin was used to remove non-specific bindings. 25 ul of the compound, 100 ul of an aqueous radioactive isotope solution, and 100 ul of the protein source were put together, and kept at 25° C. for 1 hour. The resulting mixture was filtered with a membrane filter in a 96-well harvester when the 96-well plate reaction was completed. The competitivity of the compound to [3H]-8-OH-DPAT was determined by taking the membrane filter and measuring the radioactivity of the membrane filter in a scintillation counter, and an IC50 value was determined by measuring the increasing concentration of the compound. The specific reaction of the compound accounted for 90% or more. The general experiments were carried out according to the method by Middlemiss et al. (1984, Eur. J. Pharmacol.).

male ICR mouse = test: Acetic acid-induced writhing test in mouse; assay type: in vivo; details: Mus musculus; for ED50: unit not given (method doses in mg/kg), read-out: AA Writhing: ED50; for inhibition in vivo at 10 mg/kg: 1 h, at 10 po (method: 10 mg/kg oral, 1 hour before acetic acid), read-out: AA Writhing: Suppression ratio of Pain response
Procedure: 2. Acetic Acid-Induced Writhing Test in Mouse
An acetic acid-induced writhing test is one of models for measuring an analgesic effect of drugs. A test material dissolved in a suitable vehicle was orally administered to a male ICR mouse weighing 30 to 35 g at an amount of 10 mg/kg. After 1 hour of the oral administration, […] of an aqueous 0.8% acetic acid solution was intraperitoneally injected into the male ICR mouse to induce the abdominal pain of the male ICR mouse. Right after the administration of acetic acid, the male ICR mouse was put into an empty cage, and the number of writhing behaviors of the mice was counted for 10 minutes. The term “writhing represents a reflex action in which the mouse overtly extends its abdomen by stretching its hind legs due to the abdominal pain. The analgesic effect of the test material is represented by the ‘suppression ratio of pain response’ {[(Writhing number of Vehicle-administered group−Writhing number of Test material-administered group)/(Writhing number of Vehicle-administered group)]×100%} or 50% of Effective amount (ED50 (median effective dose); an amount of test material that is required to suppress 50% of pain behaviors) of Test material. The ED50 (median effective dose) was determined by calculating the suppression ratio of pain response in at least three doses of test materials and subjecting to the linear regression.

Chain of 5-HT1A receptor (P19327 whole entry): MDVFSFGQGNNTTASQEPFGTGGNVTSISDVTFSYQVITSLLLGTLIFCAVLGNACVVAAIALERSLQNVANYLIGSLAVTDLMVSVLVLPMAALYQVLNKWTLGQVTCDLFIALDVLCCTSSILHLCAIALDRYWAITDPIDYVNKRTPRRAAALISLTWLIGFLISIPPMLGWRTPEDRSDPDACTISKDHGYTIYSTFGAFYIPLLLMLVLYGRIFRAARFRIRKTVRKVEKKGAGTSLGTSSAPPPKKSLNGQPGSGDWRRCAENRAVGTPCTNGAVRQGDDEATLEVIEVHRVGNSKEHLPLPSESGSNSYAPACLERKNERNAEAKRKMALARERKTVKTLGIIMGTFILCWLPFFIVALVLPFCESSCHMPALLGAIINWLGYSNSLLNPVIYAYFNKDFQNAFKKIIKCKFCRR
Chain of 5-HT2A receptor (P14842 whole entry): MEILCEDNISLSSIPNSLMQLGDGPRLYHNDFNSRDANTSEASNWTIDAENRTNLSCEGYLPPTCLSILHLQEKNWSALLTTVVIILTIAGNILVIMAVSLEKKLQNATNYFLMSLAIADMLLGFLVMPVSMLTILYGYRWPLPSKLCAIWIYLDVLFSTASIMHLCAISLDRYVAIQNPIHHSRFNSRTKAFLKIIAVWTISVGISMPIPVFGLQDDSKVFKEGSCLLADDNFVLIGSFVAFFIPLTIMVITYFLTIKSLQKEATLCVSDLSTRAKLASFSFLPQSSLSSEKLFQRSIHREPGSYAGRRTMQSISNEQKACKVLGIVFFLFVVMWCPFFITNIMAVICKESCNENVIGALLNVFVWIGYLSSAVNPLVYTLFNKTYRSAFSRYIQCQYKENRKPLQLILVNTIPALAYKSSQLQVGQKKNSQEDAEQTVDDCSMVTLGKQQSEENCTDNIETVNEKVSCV

SMILES: Cc1ccc(C(CCN2CCN(c3ccccc3)CC2)OC(N)=O)cc1 (stereo not shown) [Example 10, Carbamic acid 3-(4-phenyl-piperazin-1-yl)-1-p-tolyl-propyl ester]
- inhibition at 1 µM (5-HT2A receptor; 1 h, read-out: 5-HT2A: Suppression): 85.6%
- inhibition at 1 µM (5-HT1A receptor; 1 h, at 1 uM, read-out: 5-HT1A: Suppression): 59.6%

SMILES: NC(=O)OC(CCN1CCN(c2ccc(Cl)cc2)CC1)c1ccccc1 (stereo not shown) [Example 22, Carbamic acid 3-[4-(4-chloro-phenyl)-piperazin-1-yl]-1-phenyl-propyl ester]
- pIC50 (5-HT2A receptor): 6.58
- pIC50 (5-HT1A receptor): 5.73

SMILES: NC(=O)OC(CCN1CCN(c2ccccn2)CC1)c1ccccc1 (stereo not shown) [Example 25, Carbamic acid 1-phenyl-3-(4-pyridin-2-yl-piperazin-1-yl)-propyl ester]
- pIC50 (5-HT2A receptor): 6.35
- pIC50 (5-HT1A receptor): 6.47

SMILES: COc1cccc(N2CCN(CCC(OC(N)=O)c3ccccc3)CC2)c1 (stereo not shown) [Example 26, Carbamic acid 3-[4-(3-methoxy-phenyl)-piperazin-1-yl]-1-phenyl-propyl ester]
- pIC50 (5-HT2A receptor): 6.30
- pIC50 (5-HT1A receptor): 7.09

SMILES: NC(=O)OC(CCN1CCN(c2cccc(C(F)(F)F)c2)CC1)c1ccccc1 (stereo not shown) [Example 39, Carbamic acid 1-phenyl-3-[4-(3-trifluoromethyl-phenyl)-piperazin-1-yl]-propyl ester]
- pIC50 (5-HT2A receptor): 6.18
- pIC50 (5-HT1A receptor): 7.90

SMILES: CC(=O)Oc1ccc(N2CCN(CCC(OC(N)=O)c3ccccc3)CC2)cc1 (stereo not shown) [Example 86, Acetic acid 4-[4-(3-carbamoyloxy-3-phenyl-propyl)-piperazin-1-yl]-phenyl ester]
- ED50 (male ICR mouse; po): 7.52 mg/kg

SMILES: NC(=O)OC(CCN1CCN(c2ccc(OC3CCCC3)cc2)CC1)c1ccccc1 (stereo not shown) [Example 87, Carbamic acid 3-[4-(4-cyclopentyloxy-phenyl)-piperazin-1-yl]-1-phenyl-propyl ester]
- inhibition in vivo at 10 mg/kg (male ICR mouse; po): 58%

SMILES: NC(=O)OC(CCN1CCN(c2ccc(O)cc2)CC1)c1ccc(F)cc1 (stereo not shown) [Example 88, Carbamic acid 1-(4-fluoro-phenyl)-3-[4-(4-hydroxy-phenyl)-piperazin-1-yl]-propyl ester]
- ED50 (male ICR mouse; po): 7.24 mg/kg

SMILES: CC(C)(C)C(=O)Oc1ccc(N2CCN(CCC(OC(N)=O)c3ccc(F)cc3)CC2)cc1 (stereo not shown) [Example 89, 1-(4-fluorophenyl)-3-(4-(4-(pivaloyloxy)phenyl)piperazin-1-yl)propyl carbamate]
- inhibition in vivo at 10 mg/kg (male ICR mouse; po): 63%

SMILES: CCOC(=O)Oc1ccc(N2CCN(CCC(OC(N)=O)c3ccc(F)cc3)CC2)cc1 (stereo not shown) [Example 90, Carbonic acid 4-{4-[3-carbamoyloxy-3-(4-fluoro-phenyl)-propyl]-piperazin-1-yl}-phenyl ethyl ester]
- ED50 (male ICR mouse; po): 23.4 mg/kg

SMILES: NC(=O)OC(CCN1CCN(c2ccc(OC(=O)OCc3ccccc3)cc2)CC1)c1ccc(F)cc1 (stereo not shown) [Example 91, Carbonic acid benzyl ester 4-{4-[3-carbamoyloxy-3-(4-fluoro-phenyl)-propyl]-piperazin-1-yl}-phenyl ester]
- inhibition in vivo at 10 mg/kg (male ICR mouse; po): 45%

SMILES: CC(=O)Oc1ccc(N2CCN(CCC(OC(N)=O)c3ccc(F)cc3)CC2)cc1 (stereo not shown) [Example 92, Acetic acid 4-{4-[3-carbamoyloxy-3-(4-fluoro-phenyl)-propyl]-piperazin-1-yl}-phenyl ester]
- ED50 (male ICR mouse; ip): 0.22 mg/kg
- ED50 (male ICR mouse; po): 5.66 mg/kg

- pIC50 (5-HT2A receptor): 6.03
- pIC50 (5-HT1A receptor): < 5.00
SMILES: NC(=O)OC(CCN1CCN(C(c2ccc(F)cc2)c2ccc(F)cc2)CC1)c1ccccc1 (stereo not shown) [Example 93, Carbamic acid 3-{4-[bis-(4-fluoro-phenyl)-methyl]-piperazin-1-yl}-1-phenyl-propyl ester]

SMILES: COc1ccccc1N1CCN(CCCC(OC(N)=O)c2ccccc2)CC1 (stereo not shown) [Example 95, Carbamic acid 4-[4-(2-methoxy-phenyl)-piperazin-1-yl]-1-phenyl-butyl ester]
- pIC50 (5-HT2A receptor): 5.82
- pIC50 (5-HT1A receptor): 8.24

SMILES: NC(=O)OC(CCCN1CCN(c2ccccn2)CC1)c1ccccc1 (stereo not shown) [Example 96, Carbamic acid 1-phenyl-4-(4-pyridin-2-yl-piperazin-1-yl)-butyl ester]
- pIC50 (5-HT2A receptor): 5.50
- pIC50 (5-HT1A receptor): 7.69

SMILES: COc1ccc(N2CC(C)N(CC[C@@H](OC(N)=O)c3ccccc3)C(C)C2)cc1 (stereo partly drawn) [Example 101, Carbamic acid (R)-3-[4-(4-methoxy-phenyl)-2,6-dimethyl-piperazin-1-yl]-1-phenyl-propyl ester]
- inhibition in vivo at 10 mg/kg (male ICR mouse; po): 48%

SMILES: NC(=O)O[C@H](CCN1CCN(c2ccc(O)cc2)CC1)c1ccccc1 [Example 105, (R)-carbamic acid 3-[4-(4-hydroxy-phenyl)-piperazin-1-yl]-1-phenyl-propyl ester]
- ED50 (male ICR mouse; po): 6.49 mg/kg

SMILES: COc1ccc(N2CCN(CCC3OC(=O)Nc4ccccc43)CC2)cc1 (stereo not shown) [Example 107, 4-{2-[4-(4-methoxy-phenyl)-piperazin-1-yl]-ethyl}-1,4-dihydro-benzo[d][1,3]oxazin-2-one]
- inhibition in vivo at 10 mg/kg (male ICR mouse; po): 35%

SMILES: COc1ccc(N2CCN(C(C)CC(OC(N)=O)c3ccccc3)CC2)cc1 (stereo not shown) [Example 108, Carbamic acid 3-[4-(4-methoxy-phenyl)-piperazin-1-yl]-1-phenyl-butyl ester]
- inhibition in vivo at 10 mg/kg (male ICR mouse; po): 83.5%

SMILES: CC(CC(OC(N)=O)c1ccccc1)N1CCN(c2ccc(Cl)cc2)CC1 (stereo not shown) [Example 109, Carbamic acid 3-[4-(4-chloro-phenyl)-piperazin-1-yl]-1-phenyl-butyl ester]
- inhibition in vivo at 10 mg/kg (male ICR mouse; po): 84%

SMILES: CC(CC(OC(N)=O)c1ccccc1)N1CCN(c2ccc([N+](=O)[O-])cc2)CC1 (stereo not shown) [Example 110, Carbamic acid 3-[4-(4-nitro-phenyl)-piperazin-1-yl]-1-phenyl-butyl ester]
- inhibition in vivo at 10 mg/kg (male ICR mouse; po): 17%

SMILES: Cc1ccc(N2CCN(C(C)CC(OC(N)=O)c3ccccc3)CC2)cc1C (stereo not shown) [Example 111, Carbamic acid 3-[4-(3,4-dimethyl-phenyl)-piperazin-1-yl]-1-phenyl-butyl ester]
- inhibition in vivo at 10 mg/kg (male ICR mouse; po): 95%

SMILES: CC(CC(OC(N)=O)c1ccccc1)N1CCN(c2cnc3ccccc3n2)CC1 (stereo not shown) [Example 112]
- inhibition in vivo at 10 mg/kg (male ICR mouse; po): 72%

SMILES: COc1ccc(N2CCN(C(C)CC(OC(N)=O)c3ccccc3)CC2)cc1OC (stereo not shown) [Example 113, Carbamic acid 3-[4-(3,4-dimethoxy-phenyl)-piperazin-1-yl]-1-phenyl-butyl ester]
- inhibition in vivo at 10 mg/kg (male ICR mouse; po): 57%

SMILES: CC(CC(OC(N)=O)c1ccccc1)N1CCN(c2ncc(Cl)cc2Cl)CC1 (stereo not shown) [Example 114]
- inhibition in vivo at 10 mg/kg (male ICR mouse; po): 39%

SMILES: CC(CC(OC(N)=O)c1ccccc1)N1CCN(c2ccc(Cl)c(Cl)c2)CC1 (stereo not shown) [Example 115, Carbamic acid 3-[4-(3,4-dichloro-phenyl)-piperazin-1-yl]-1-phenyl-butyl ester]
- inhibition in vivo at 10 mg/kg (male ICR mouse; po): 68%

SMILES: CC(CC(OC(N)=O)c1ccccc1)N1CCN(c2ccc(F)cc2F)CC1 (stereo not shown) [Example 116, Carbamic acid 3-[4-(2,4-difluoro-phenyl)-piperazin-1-yl]-1-phenyl-butyl ester]
- inhibition in vivo at 10 mg/kg (male ICR mouse; po): 87%

SMILES: NC(=O)OC(c1ccccc1)C(F)CN1CCN(c2ccccc2)CC1 (stereo not shown) [Example 117, Carbamic acid 2-fluoro-1-phenyl-3-(4-phenyl-piperazin-1-yl)-propyl ester]
- ED50 (male ICR mouse; po): 32.2 mg/kg
